Assay results reported in ChEMBL document CHEMBL4229426, “Synthesis, antitumor activity evaluation and mechanistic study of novel hederacolchiside A1 derivatives bearing an aryl triazole moiety” (Bioorg Med Chem, 2018).
The source made the active and inactive calls. No cut-off for these calls is given here.

Tests used:
HepG2 [1] = assay: Downregulation of Bcl2 protein expression in human HepG2 cells assessed as ratio of Bcl2 to GAPDH expression level at 0.5 uM after 48 hrs by Western blot analysis (reference value: 0.97); format: functional
HepG2 [2] = assay: Induction of apoptosis in human HepG2 cells assessed as live cells at 2 uM after 48 hrs by Annexin V-FITC/propidium iodide staining based flow cytometry (reference value: 95.5%); format: functional
HepG2 [3] = assay: Cell cycle arrest in human HepG2 cells assessed as accumulation at S-phase at 2 uM after 48 hrs by propidium iodide staining based flow cytometry (reference value: 26.79%); format: functional
HepG2 [4] = assay: Downregulation of Bcl2 protein expression in human HepG2 cells assessed as ratio of Bcl2 to GAPDH expression level at 2 uM after 48 hrs by Western blot analysis (reference value: 0.97); format: functional
HepG2 [5] = assay: Induction of apoptosis in human HepG2 cells assessed as live cells at 1 uM after 48 hrs by Annexin V-FITC/propidium iodide staining based flow cytometry (reference value: 95.5%); format: functional
HepG2 [6] = assay: Induction of mitochondrial membrane depolarization in human HepG2 cells at 2 uM after 48 hrs by JC-1 staining based flow cytometry (reference value: 1.3%); format: functional
HepG2 [7] = assay: Cell cycle arrest in human HepG2 cells assessed as accumulation at G2-phase at 1 uM after 48 hrs by propidium iodide staining based flow cytometry (reference value: 32.61%); format: functional
HepG2 [8] = assay: Cell cycle arrest in human HepG2 cells assessed as accumulation at G1-phase at 0.5 uM after 48 hrs by propidium iodide staining based flow cytometry (reference value: 40.6%); format: functional
HepG2 [9] = assay: Cell cycle arrest in human HepG2 cells assessed as accumulation at G2-phase at 2 uM after 48 hrs by propidium iodide staining based flow cytometry (reference value: 32.61%); format: functional
HepG2 [10] = assay: Induction of mitochondrial membrane depolarization in human HepG2 cells at 0.5 uM after 48 hrs by JC-1 staining based flow cytometry (reference value: 1.3%); format: functional
HepG2 [11] = assay: Induction of apoptosis in human HepG2 cells assessed as early apoptotic cells at 2 uM after 48 hrs by Annexin V-FITC/propidium iodide staining based flow cytometry (reference value: 4.42%); format: functional
HepG2 [12] = assay: Induction of apoptosis in human HepG2 cells assessed as necrotic cells at 0.5 uM after 48 hrs by Annexin V-FITC/propidium iodide staining based flow cytometry (reference value: 0.06%); format: functional
HepG2 [13] = assay: Induction of apoptosis in human HepG2 cells assessed as late apoptotic cells at 0.5 uM after 48 hrs by Annexin V-FITC/propidium iodide staining based flow cytometry (reference value: 0.02%); format: functional
HepG2 [14] = assay: Cell cycle arrest in human HepG2 cells assessed as accumulation at S-phase at 1 uM after 48 hrs by propidium iodide staining based flow cytometry (reference value: 26.79%); format: functional
HepG2 [15] = assay: Cell cycle arrest in human HepG2 cells assessed as accumulation at G1-phase at 1 uM after 48 hrs by propidium iodide staining based flow cytometry (reference value: 40.6%); format: functional
HepG2 [16] = assay: Induction of mitochondrial membrane depolarization in human HepG2 cells after 48 hrs by JC-1 staining based flow cytometry; format: functional, cell-based
HepG2 [17] = assay: Upregulation of cytochrome-c protein expression in human HepG2 cells assessed as ratio of cytochrome-c to GAPDH expression level at 0.5 to 2 uM after 48 hrs by Western blot analysis (reference value: 0.05); format: functional
HepG2 [18] = assay: Antiproliferative activity against human HepG2 cells after 48 hrs by MTT assay; format: functional, cell-based; settings: HepG2, 48 h
HepG2 [19] = assay: Upregulation of caspase-9 protein expression in human HepG2 cells assessed as ratio of caspase-9 to GAPDH expression level at 1 uM after 48 hrs by Western blot analysis (reference value: 0.17); format: functional
U-937 = assay: Antiproliferative activity against human U937 cells after 48 hrs by MTT assay; format: functional, cell-based; settings: U-937, 48 h
HepG2 [20] = assay: Cell cycle arrest in human HepG2 cells assessed as accumulation at G2-phase at 0.5 uM after 48 hrs by propidium iodide staining based flow cytometry (reference value: 32.61%); format: functional
HepG2 [21] = assay: Cell cycle arrest in human HepG2 cells assessed as accumulation at G1-phase at 2 uM after 48 hrs by propidium iodide staining based flow cytometry (reference value: 40.6%); format: functional
HepG2 [22] = assay: Upregulation of caspase-9 protein expression in human HepG2 cells at 2 uM after 48 hrs by Western blot analysis; format: functional, cell-based
PC-3 = assay: Antiproliferative activity against human PC3 cells after 48 hrs by MTT assay; format: functional, cell-based; settings: PC-3, 48 h
HepG2 [23] = assay: Cell cycle arrest in human HepG2 cells after 48 hrs by propidium iodide staining based flow cytometry; format: functional
HepG2 [24] = assay: Downregulation of Bcl2 protein expression in human HepG2 cells assessed as ratio of Bcl2 to GAPDH expression level at 1 uM after 48 hrs by Western blot analysis (reference value: 0.97); format: functional
HepG2 [25] = assay: Upregulation of cytochrome-c protein expression in human HepG2 cells after 48 hrs by Western blot analysis; format: functional, cell-based
HL-60 = assay: Antiproliferative activity against human HL60 cells after 48 hrs by MTT assay; format: functional, cell-based; settings: HL-60, 48 h
HepG2 [26] = assay: Induction of apoptosis in human HepG2 cells assessed as necrotic cells at 1 uM after 48 hrs by Annexin V-FITC/propidium iodide staining based flow cytometry (reference value: 0.06%); format: functional
HepG2 [27] = assay: Induction of apoptosis in human HepG2 cells assessed as late apoptotic cells at 2 uM after 48 hrs by Annexin V-FITC/propidium iodide staining based flow cytometry (reference value: 0.02%); format: functional
HepG2 [28] = assay: Cell cycle arrest in human HepG2 cells assessed as accumulation at S-phase at 0.5 uM after 48 hrs by propidium iodide staining based flow cytometry (reference value: 26.79%); format: functional
HepG2 [29] = assay: Induction of apoptosis in human HepG2 cells assessed as live cells at 0.5 uM after 48 hrs by Annexin V-FITC/propidium iodide staining based flow cytometry (reference value: 95.5%); format: functional
HepG2 [30] = assay: Induction of apoptosis in human HepG2 cells assessed as necrotic cells at 2 uM after 48 hrs by Annexin V-FITC/propidium iodide staining based flow cytometry (reference value: 0.06%); format: functional
HepG2 [31] = assay: Induction of apoptosis in human HepG2 cells assessed as early apoptotic cells at 1 uM after 48 hrs by Annexin V-FITC/propidium iodide staining based flow cytometry (reference value: 4.42%); format: functional
HepG2 [32] = assay: Induction of apoptosis in human HepG2 cells assessed as late apoptotic cells at 1 uM after 48 hrs by Annexin V-FITC/propidium iodide staining based flow cytometry (reference value: 0.02%); format: functional
HepG2 [33] = assay: Upregulation of caspase-3 protein expression in human HepG2 cells assessed as ratio of caspase-3 to GAPDH expression level at 2 uM after 48 hrs by Western blot analysis (reference value: 0.25); format: functional
A549 = assay: Antiproliferative activity against human A549 cells after 48 hrs by MTT assay; format: functional, cell-based; settings: A549, 48 h
HepG2 [34] = assay: Induction of apoptosis in human HepG2 cells assessed as early apoptotic cells at 0.5 uM after 48 hrs by Annexin V-FITC/propidium iodide staining based flow cytometry (reference value: 4.42%); format: functional
HT-29 = assay: Antiproliferative activity against human HT-29 cells after 48 hrs by MTT assay; format: functional, cell-based; settings: HT-29, 48 h
HepG2 [35] = assay: Induction of mitochondrial membrane depolarization in human HepG2 cells at 1 uM after 48 hrs by JC-1 staining based flow cytometry (reference value: 1.3%); format: functional

Work on Cc1ccc(-n2cc(CNC(=O)[C@]34CCC(C)(C)C[C@H]3C3=CC[C@@H]5[C@@]6(C)CC[C@H](O[C@@H]7OC[C@H](O[C@@H]8O[C@H](CO)[C@@H](O)[C@H](O)[C@H]8O)[C@H](O)[C@H]7O[C@@H]7O[C@@H](C)[C@H](O)[C@@H](O)[C@H]7O)C(C)(C)[C@@H]6CC[C@@]5(C)[C@]3(C)CC4)nn2)cc1 yielded a Ratio (HepG2 [1]) of 0.64, an Activity (HepG2 [2]) of 41.56% and an Activity (HepG2 [3]) of 39.32%. The Ratio (HepG2 [4]) was 0.19, the Activity (HepG2 [5]) was 53.1% and the Activity (HepG2 [6]) was 54.12%. It also gave an Activity (HepG2 [7]) of 15.68%, an Activity (HepG2 [8]) of 48.7% and an Activity (HepG2 [9]) of 11.33%. For the same compound, the Activity (HepG2 [10]) was 15.98%, the Activity (HepG2 [11]) was 21.07% and the Activity (HepG2 [12]) was 0.3%. For the same compound, the Activity (HepG2 [13]) was 6.89%, the Activity (HepG2 [14]) was 35.92% and the Activity (HepG2 [15]) was 48.4%. For the same compound, the Activity (HepG2 [16]) was “Dose-dependent effect”, the Ratio (HepG2 [17]) was 0.4 and the IC50 (HepG2 [18]) was 540 nM. It also gave a Ratio (HepG2 [19]) of 0.45, an IC50 (U-937) of 730 nM and an Activity (HepG2 [20]) of 18.01%. For the same compound, the Activity (HepG2 [21]) was 49.35%, the Activity (HepG2 [22]) was “Active” and the IC50 (PC-3) was 540 nM. For the same compound, the Activity (HepG2 [23]) was “Dose-dependent effect”, the Ratio (HepG2 [24]) was 0.47 and the Activity (HepG2 [25]) was “Dose-dependent effect”. The IC50 (HL-60) was 810 nM, the Activity (HepG2 [26]) was 0.56% and the Activity (HepG2 [27]) was 35.77%. The Activity (HepG2 [28]) was 33.29%, the Activity (HepG2 [29]) was 74.94% and the Activity (HepG2 [30]) was 1.51%. The Activity (HepG2 [31]) was 24.76%, the Activity (HepG2 [32]) was 21.58% and the Ratio (HepG2 [33]) was 0.63. It also gave an IC50 (A549) of 2660 nM, an Activity (HepG2 [34]) of 17.87% and an IC50 (HT-29) of 930 nM. The Activity (HepG2 [35]) was 33.51%.
